Experimental data reported in ChEMBL document CHEMBL4251572, “Novel aminopyrimidinyl benzimidazoles as potentially antimicrobial agents: Design, synthesis and biological evaluation” (Eur J Med Chem, 2018).
≈ marks a conversion by molar mass, not a printed value. Calls of active or inactive are those of the source. No cut-off for these calls is given here.

What was measured:
Bacillus = test: Antibacterial activity against Bacillus proteus ATCC 13315 after 24 hrs by micro broth dilution assay; format: functional; settings: ATCC 13315, 24 h
Escherichia coli [1] = test: Antibacterial activity against Escherichia coli DH52 after 24 hrs by micro broth dilution assay; format: functional; settings: DH52, 24 h
Staphylococcus aureus [2] = test: Antibacterial activity against Staphylococcus aureus ATCC 25923 after 24 hrs by micro broth dilution assay; format: functional; settings: ATCC 25923, 24 h
Pseudomonas aeruginosa [3] = test: Antibacterial activity against Pseudomonas aeruginosa after 24 hrs by micro broth dilution assay; format: functional
Salmonella typhi = test: Antibacterial activity against Bacillus typhi after 24 hrs by micro broth dilution assay; format: functional, Salmonella enterica subsp. enterica serovar Typhi; settings: Salmonella enterica
Bacillus subtilis = test: Antibacterial activity against Bacillus subtilis after 24 hrs by micro broth dilution assay; format: functional
Staphylococcus aureus [4] = test: Antibacterial activity against methicillin-resistant Staphylococcus aureus N315 after 16 serial passages by two-fold serial dilution assay; format: functional, organism-based
Staphylococcus aureus [5] = test: Antibacterial activity against methicillin-resistant Staphylococcus aureus N315 after 24 hrs by micro broth dilution assay; format: functional; settings: N315, 24 h
Escherichia coli [6] = test: Antibacterial activity against Escherichia coli JM109 after 24 hrs by micro broth dilution assay; format: functional; settings: JM109, 24 h
Shigella dysenteriae = test: Antibacterial activity against Shigella dysenteriae after 24 hrs by micro broth dilution assay; format: functional
Micrococcus luteus = test: Antibacterial activity against Micrococcus luteus ATCC4698 after 24 hrs by micro broth dilution assay; format: functional; settings: ATCC4698, 24 h
Albumin [7] = target: T1, Albumin (Homo sapiens, UniProt P02768); test: Binding affinity to HSA assessed as Stern-Volmer quenching constant at pH 7.4 at 303 K by fluorescence spectroscopic analysis; format: ADME; settings: isolated protein
T1 sequence (P02768 whole entry): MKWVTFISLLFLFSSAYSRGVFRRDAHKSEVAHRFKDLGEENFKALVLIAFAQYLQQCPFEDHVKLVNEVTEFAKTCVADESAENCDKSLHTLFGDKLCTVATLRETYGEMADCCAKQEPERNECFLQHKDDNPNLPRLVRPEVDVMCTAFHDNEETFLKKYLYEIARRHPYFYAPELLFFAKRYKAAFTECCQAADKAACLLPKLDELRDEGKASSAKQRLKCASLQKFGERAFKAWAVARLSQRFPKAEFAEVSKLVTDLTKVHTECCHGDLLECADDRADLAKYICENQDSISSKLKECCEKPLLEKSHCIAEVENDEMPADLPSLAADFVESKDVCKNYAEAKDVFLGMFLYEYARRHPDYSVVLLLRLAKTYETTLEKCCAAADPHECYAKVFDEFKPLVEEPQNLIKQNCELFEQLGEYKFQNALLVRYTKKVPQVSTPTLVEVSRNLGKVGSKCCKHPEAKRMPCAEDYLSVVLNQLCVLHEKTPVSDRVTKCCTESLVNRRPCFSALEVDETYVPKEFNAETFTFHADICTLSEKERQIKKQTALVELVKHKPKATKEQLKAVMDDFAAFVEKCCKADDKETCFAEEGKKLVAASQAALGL

Calf thymus DNA [8] = test: Binding affinity to calf thymus DNA by UV-vis absorption spectra analysis; format: nucleic-acid assay; settings: Bos taurus
L02 = test: Cytotoxicity against human LO2 cells at 100 to 500 ug/ml after 48 hrs by MTT assay; format: cell-based; settings: l02, 48 h
Staphylococcus aureus [9] = test: Antibacterial activity against Staphylococcus aureus ATCC 25923 incubated for 24 hrs followed by plating onto tryptic soy agar medium and measured after 24 hrs; format: functional; settings: ATCC 25923, 24 h
Albumin [10] = target: T1, Albumin; test: Binding affinity to HSA assessed as increase in absorption intensity by UV-vis absorption spectra analysis; format: ADME; settings: isolated protein
HepG2 = test: Induction of ROS generation in human HepG2 cells at 6.25 to 50 uM by DCFH-DA staining based fluorescence microscopic analysis; format: cell-based; settings: hepg2, 50 µM
Staphylococcus aureus [11] = test: Ratio of MBC for Staphylococcus aureus ATCC 25923 to MIC for Staphylococcus aureus ATCC 25923; format: functional
Albumin [12] = target: T1, Albumin; test: Binding affinity to HSA assessed as Stern-Volmer quenching constant at pH 7.4 at 284 K by fluorescence spectroscopic analysis; format: ADME; settings: isolated protein
Cyberlindnera jadinii = test: Antifungal against Candida utilis after 24 hrs by two fold serial dilution method; format: functional; settings: Williopsis jadinii
Pseudomonas aeruginosa [13] = test: Ratio of MBC for Pseudomonas aeruginosa to MIC for Pseudomonas aeruginosa; format: functional
Calf thymus DNA [14] = test: Binding affinity to calf thymus DNA assessed as Stern-Volmer quenching constant at 2 x 10^-5 mol/L at pH 7.4 at 298 K in presence of potassium iodide by fluorescence assay (reference value: 46.23 L/mol); format: nucleic-acid assay; settings: Bos taurus
Saccharomyces cerevisiae = test: Antifungal against Saccharomyces cerevisiae after 24 hrs by two fold serial dilution method; format: functional
Staphylococcus aureus [15] = test: Antibacterial activity against methicillin-resistant Staphylococcus aureus N315 incubated for 24 hrs followed by plating onto tryptic soy agar medium and measured after 24 hrs; format: functional; settings: N315, 24 h
Calf thymus DNA [16] = test: Competitive binding affinity to calf thymus DNA assessed as reduction in DNA_AO complex fluorescence intensity by acridine orange staining-based assay; format: nucleic-acid assay; settings: Bos taurus
Albumin [17] = target: T1, Albumin; test: Binding affinity to HSA assessed as Stern-Volmer quenching constant at pH 7.4 at 298 K by fluorescence spectroscopic analysis; format: ADME; settings: isolated protein
Pichia norvegensis = test: Antifungal against Candida mycoderma after 24 hrs by two fold serial dilution method; format: functional
Pseudomonas aeruginosa [18] = test: Antibacterial activity against Pseudomonas aeruginosa incubated for 24 hrs followed by plating onto tryptic soy agar medium and measured after 24 hrs; format: functional
Albumin [19] = target: T1, Albumin; test: Binding affinity to HSA at 0.2 to 1 10'5 mol/L by synchronous fluorescence […]; format: ADME; settings: isolated protein
Candida albicans = test: Antifungal against Candida albicans ATCC 76615 after 24 hrs by two fold serial dilution method; format: functional; settings: ATCC 76615, 24 h
Calf thymus DNA [20] = test: Binding affinity to calf thymus DNA assessed as hypochromic effect by UV-vis absorption spectra analysis; format: nucleic-acid assay; settings: Bos taurus
Aspergillus flavus = test: Antifungal against Aspergillus flavus after 24 hrs by two fold serial dilution method; format: functional
Staphylococcus aureus [21] = test: Ratio of MBC for methicillin-resistant Staphylococcus aureus N315 to MIC for methicillin-resistant Staphylococcus aureus N315; format: functional

Compound | MIC (Bacillus) [µg/mL] | MIC (Escherichia coli [1]) [µg/mL] | MIC (Staphylococcus aureus [2]) [µg/mL] | MIC (Pseudomonas aeruginosa [3]) [µg/mL] | MIC (Salmonella typhi) [µg/mL] | MIC (Bacillus subtilis) [µg/mL] | Activity (Staphylococcus aureus [4]) | MIC (Staphylococcus aureus [5]) [µg/mL] | MIC (Escherichia coli [6]) [µg/mL] | MIC (Shigella dysenteriae) [µg/mL] | MIC (Micrococcus luteus) [µg/mL] | MBC (Staphylococcus aureus [9]) [µg/mL] | Ratio (Staphylococcus aureus [11]) | MIC (Cyberlindnera jadinii) [µg/mL] | Ratio (Pseudomonas aeruginosa [13]) | MIC (Saccharomyces cerevisiae) [µg/mL] | MBC (Staphylococcus aureus [15]) [µg/mL] | MIC (Pichia norvegensis) [µg/mL] | MBC (Pseudomonas aeruginosa [18]) [µg/mL] | MIC (Candida albicans) [µg/mL] | other results
CCn1cc(C(=O)O)c(=O)c2cc(F)c(N3CCNCC3)cc21 [NORFLOXACIN] | 4 (≈ 12.5 µM) | 1 (≈ 3.13 µM) | 8 (≈ 25.1 µM) | 1 (≈ 3.13 µM) | 1 (≈ 3.13 µM) | 2 (≈ 6.26 µM) | inactive | 1 (≈ 3.13 µM) | 1 (≈ 3.13 µM) | 16 (≈ 50.1 µM) | 1 (≈ 3.13 µM) |  |  |  |  |  |  |  |  |  | 
Cc1ccc(-c2cc(-c3nc4ccccc4[nH]3)nc(N)n2)cc1 | 4 (≈ 13.3 µM) | 1 (≈ 3.32 µM) | 8 (≈ 26.5 µM) | 4 (≈ 13.3 µM) | 2 (≈ 6.64 µM) | 8 (≈ 26.5 µM) | Active | 8 (≈ 26.5 µM) | 2 (≈ 6.64 µM) | 16 (≈ 53.1 µM) | 8 (≈ 26.5 µM) | 8 (≈ 26.5 µM) | 1 | 4 (≈ 13.3 µM) | 2 | 4 (≈ 13.3 µM) | 8 (≈ 26.5 µM) | 4 (≈ 13.3 µM) | 8 (≈ 26.5 µM) | 8 (≈ 26.5 µM) | KSV (Albumin [7]): 1.73 ×10⁵ L/mol; K (Calf thymus DNA [8]): 1.54 ×10⁴ L/mol; Activity (L02): Non-Toxic; Activity (Albumin [10]): Active; Activity (HepG2): Non-Toxic; KSV (Albumin [12]): 1.96 ×10⁵ L/mol; KSV (Calf thymus DNA [14]): 39.9 L/mol; Activity (Calf thymus DNA [16]): Dose-dependent effect; KSV (Albumin [17]): 1.9 ×10⁵ L/mol; Activity (Albumin [19]): Active; Activity (Calf thymus DNA [20]): Active; MIC (Aspergillus flavus): 1 µg/mL (≈ 3.32 µM)
CCCCn1c(-c2cc(-c3ccc(Cl)cc3)nc(N)n2)nc2ccccc21 | 4 (≈ 10.6 µM) | 128 (≈ 339 µM) | 16 (≈ 42.3 µM) | 64 (≈ 169 µM) | 8 (≈ 21.2 µM) | 64 (≈ 169 µM) |  | 32 (≈ 84.7 µM) | 64 (≈ 169 µM) | 256 (≈ 677 µM) | 64 (≈ 169 µM) | 16 (≈ 42.3 µM) | 1 | 2 (≈ 5.29 µM) | 8 | 128 (≈ 339 µM) | 64 (≈ 169 µM) | 4 (≈ 10.6 µM) | 512 (≈ 1350 µM) | 64 (≈ 169 µM) | Ratio (Staphylococcus aureus [21]): 2; MIC (Aspergillus flavus): 256 µg/mL (≈ 677 µM)
